“Also recorded” adds a separate entry of the source.
What was measured:
[1] = target: T1, P-glycoprotein (P-gp, MDR1) (Homo sapiens, UniProt P08183); experiment: Bidirectional permeability and P-gp substrate assay in MDCKII-MDR1 cells; assay type: in vitro ADME; conditions: human, MDCK-MDR1, pH 7.4; efflux ratio, MDCKII-MDR1 cells; read-out: MDCKII-MDR1 B-A ratio
T1 construct: expressed in transfected cells; host or cells: MDCKII-MDR1 (Madin-Darby Canine Kidney clone II)
Protocol: Methods: A bidirectional permeability study was conducted to evaluate the apparent permeability (Papp) of therapeutic compounds. Additionally, the MDCKII-MDR1 cell line (Madin-Darby Canine Kidney clone II cell line heterologously expressing the human P-glycoprotein transporter) and mock cell line MDCKII were used to determine whether a compound acted as a P-gp substrate, in the absence and in the presence of a potent P-gp inhibitor. Test control items (digoxin, metoprolol, and atenolol) and control P-gp inhibitor (GF120918) stock solution were prepared in DMSO. Bidirectional assays (Apical to Basolateral [AB] and Basolateral to Apical [BA]) were run, in both the absence and presence of P-gp inhibitor GF120918 in MDCKII-MDR1 and mock cell line MDCKII, using as transport buffer HBSSH at a pH of 7.4 (n=3).
Compounds were tested at a single concentration (i.e. at […]) at one time point (i.e. 60 min). Alternative concentrations or time points may also be investigated. As reference compounds, digoxin (P-gp substrate), atenolol (low permeability) and metoprolol (high permeability) were included at a single concentration (e.g., 10 or […]) and at single time point (e.g., 60 min). Digoxin transport was evaluated in two directions (apical-to-basolateral [AB] and basolateral-to-apical [BA]) in the absence and presence of GF120918 or in mock cells, MDCKII (n=3). Atenolol and metoprolol were only tested in the AB direction in absence of P-gp inhibitor GF120918 or in mock cells, MDCKII (n=3). The integrity of the cell monolayer was evaluated after the permeability experiment using the paracellular permeability marker Lucifer yellow (LY) in the apical to basolateral direction in each well.
MDCKII or MDCKII-MDR1 cells were cultivated in DMEM (high glucose, GlutaMAXTM supplemented with pyruvate, 10% FBS HI and Pen/Strep). Cells were seeded onto microporous PET (Polyethylene Terephthalate) membranes in HTS 96-Multiwell Insert plates at a density of ˜175,000-245,000 cells/cm^2 (25000-35000 cells/well; 50 μL/well) in DMEM medium and incubated for 3-4 days at 37° C.-5% CO2. Medium was changed the day before the experiment.
Stock solutions of test items were prepared in DMSO at a concentration of 5 or 10 mM and stored at −20° C. until use. The potent P-gp inhibitor, GF120918 (stock solution 10 mM) and the reference controls digoxin, atenolol, metoprolol (stock solutions 3 or 10 mM) were prepared in DMSO and stored at −20° C. until use.
Donor working solutions of test items and reference controls were prepared at a concentration of 10 or 25 µM, diluting the stock solutions in HBSSH. Receiver working solutions contained transport buffer only. All working solutions were prepared such that the final concentration of DMSO was 1% (v/v). A donor working solution containing LY was also prepared in transport buffer at 100 µM.
MDCKII and MDCKII-MDR1 cells were preincubated (37° C., 15 to 30 minutes) in receiver working solutions containing transport buffer on apical (A) and basolateral (B) sides. Following pre-incubation, test items and control items (digoxin) transport were measured in two directions (apical to basolateral [AB]) and basolateral to apical [BA]), and these directions were performed in triplicate sets of wells, in both the absence and presence of […] GF120918 or mock MDCKII cells. For [AB] directional transport, 75 μL of donor working solution was added to the A (apical) compartment and 235 μL of receiver working solution was added to the B (basolateral) compartment. For [BA] directional transport, 235 μL donor working solution with test items or reference controls was added to the B compartment and 75 μL receiver working solution was added to the A compartment. Transport of permeability reference controls, atenolol and metoprolol, were measured in one direction (apical to basolateral [AB]) (n=3).
The cells were incubated (at 37° C., with shaking) for 60 minutes. […]

[2] = Rat body temperature after IP administration; assay type: in vivo, Sprague Dawley rats; conditions: 200 minutes after injection
Protocol: Methods and Procedure: This study was conducted in compliance with previously described procedures to assure data integrity, adherence to GLP regulations, and standard preclinical study and surgery procedures. The in vivo microdialysis technique was applied to measure the over-time variations of DA, 5-HT, and NE extracellular (EC) concentrations in conscious, freely-moving Sprague Dawley rats. At the end of each experimental session (200 minutes after injection), body temperature (° C.) of Sprague Dawley rats was monitored using a digital thermometer with a rectal probe.

DAT/SERT = conditions: Simmler et al., Br J Pharmacol. 2013; cited from earlier work
[3] = MDMA at doses of 100-125 mg, literature; cited from earlier work

T1 sequence (P08183 whole entry): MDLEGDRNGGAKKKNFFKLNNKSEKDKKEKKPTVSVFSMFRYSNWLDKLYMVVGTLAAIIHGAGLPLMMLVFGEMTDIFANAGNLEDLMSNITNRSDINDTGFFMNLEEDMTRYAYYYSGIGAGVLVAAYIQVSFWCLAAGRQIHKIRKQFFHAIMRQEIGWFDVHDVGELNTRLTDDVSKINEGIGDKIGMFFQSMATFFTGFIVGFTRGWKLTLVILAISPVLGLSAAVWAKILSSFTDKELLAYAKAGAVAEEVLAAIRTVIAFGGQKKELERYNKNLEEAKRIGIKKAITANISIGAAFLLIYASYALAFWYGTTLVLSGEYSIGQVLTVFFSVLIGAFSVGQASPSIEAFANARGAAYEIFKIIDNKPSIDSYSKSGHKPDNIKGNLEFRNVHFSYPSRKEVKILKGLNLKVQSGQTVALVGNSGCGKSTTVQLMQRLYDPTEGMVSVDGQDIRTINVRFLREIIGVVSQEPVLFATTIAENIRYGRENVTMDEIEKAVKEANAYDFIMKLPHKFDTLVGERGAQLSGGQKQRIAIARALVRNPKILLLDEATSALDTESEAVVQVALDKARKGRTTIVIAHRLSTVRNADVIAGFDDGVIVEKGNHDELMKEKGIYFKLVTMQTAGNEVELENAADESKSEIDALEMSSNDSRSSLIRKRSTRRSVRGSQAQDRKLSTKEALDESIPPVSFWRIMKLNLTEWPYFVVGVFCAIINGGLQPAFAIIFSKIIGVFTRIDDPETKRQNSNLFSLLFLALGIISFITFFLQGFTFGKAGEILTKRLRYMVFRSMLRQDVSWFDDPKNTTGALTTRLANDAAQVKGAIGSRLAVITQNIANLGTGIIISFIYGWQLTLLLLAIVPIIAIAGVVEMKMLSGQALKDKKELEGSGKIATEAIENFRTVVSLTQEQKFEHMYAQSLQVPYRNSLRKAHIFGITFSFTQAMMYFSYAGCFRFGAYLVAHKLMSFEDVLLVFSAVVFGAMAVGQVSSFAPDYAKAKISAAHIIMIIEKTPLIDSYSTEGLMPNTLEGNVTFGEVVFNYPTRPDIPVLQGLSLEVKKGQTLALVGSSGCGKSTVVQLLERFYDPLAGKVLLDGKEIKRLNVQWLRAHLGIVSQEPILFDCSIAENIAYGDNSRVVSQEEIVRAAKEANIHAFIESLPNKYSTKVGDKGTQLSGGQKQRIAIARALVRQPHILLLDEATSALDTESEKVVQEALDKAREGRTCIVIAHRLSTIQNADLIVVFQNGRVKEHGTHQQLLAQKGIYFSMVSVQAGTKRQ

| SMILES | efflux ratio at 60 min [1] | change in rat body temperature (rectal) relative to vehicle [2] | DAT/SERT ratio (DAT/SERT) | increase in blood pressure (diastolic) [3] | increase in heart rate [3] |
| --- | --- | --- | --- | --- | --- |
| COC(=O)c1ccc2c(c1)CC(N)C2 (stereo not shown) [CMP-405, 2-aminoindane-5-methylcarboxylate] | 1.1 | lower than the change observed following administration of MDMA; also recorded: significantly lower than the change in temperature caused by MDMA | – | – | – |
| CNC(C)Cc1ccc2c(c1)OCO2 (stereo not shown) [MDMA] | – | 1.6 °C | 0.8 | 14.4-25 mmg | 26-30 bpm |
| COc1ccc2c(c1)CC(N)C2 (stereo not shown) [MEAI, 5-methoxy-2-aminoindane] | 1 | – | – | – | – |

From US20260159474A1, “Aminoindane Compounds and Compositions and Methods of Their Therapeutic Use” (Solvonis Therapeutics Ireland Holdings Limited, priority 2021, published 2026)
